Counter-ions that a name gives are not always drawn.
What was measured:
[1] = per 1 g of substance, crystallization as in EP 644 192
[2] = per 1 g of substance, crystallization as in U.S. Pat. No. 3,843,668

Row | Structure (SMILES) | volume of ethanol needed for dissolution of 1 g [1] | volume of methanol needed for dissolution of 1 g [2]
1 | Clc1ccc2nsnc2c1NC1=NCCN1 [tizanidine hydrochloride] | at least 43 ml | –
2 | Clc1ccc2nsnc2c1NC1=NCCN1 [tizanidine base, 5-chloro-4-(2-imidazolin-2-yl-amino)-2,1,3-benzothiadiazole] | – | at least 37 ml

Source: patent publication US8487113B2, “Method for the preparation of tizanidine hydrochloride” (Farmak, A.S., priority 2008, dated 2013)
